In PubChem BioAssay AID328 (DTP/NCI, 2004):
Values joined by “and” are separate entries in the source; they are usually repeats but may differ in a detail not shown here. Equal values may be shown once. Toxic doses and inconclusive results are not listed.

System: BDF1 mice, P388 leukemia ip, median survival T/C
Assay: NCI In Vivo Anticancer Drug Screen. Data for tumor model P388 Leukemia (intraperitoneal) in B6D2F1 (BDF1) mice
Conditions: endpoint: median survival time, higher = longer survival
In short: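 Vehicle-dosed animals serve as the reference; survival of compound-dosed, tumour-implanted mice is divided by it.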

[1] = dose: 2.0 mg/kg/injection, schedule: Q01DX009 (ip), vehicle: saline
[2] = dose: 25.0 mg/kg/injection, schedule: Q01DX009 (ip), vehicle: saline with Tween-80
[3] = dose: 50.0 mg/kg/injection, schedule: Q01DX009 (ip), vehicle: saline with Tween-80
[4] = dose: 100.0 mg/kg/injection, schedule: Q01DX009 (ip), vehicle: saline with Tween-80
[5] = dose: 200.0 mg/kg/injection, schedule: Q01DX009 (ip), vehicle: saline with Tween-80

CC[C@H]1CN2CCc3cc(OC)c(OC)cc3[C@@H]2C[C@@H]1C[C@H]1NCCc2cc(OC)c(OC)cc21
T/C (dose: 2.0 mg/kg/injection, schedule: Q01DX005 (ip), vehicle: saline): 150 % of control
T/C [1]: 150 % of control
T/C (dose: 3.0 mg/kg/injection, schedule: Q01DX009 (oral), vehicle: saline): 90 % of control
T/C (dose: 3.5 mg/kg/injection, schedule: Q01DX010 (ip), vehicle: saline): 154 % of control and 160 % of control
T/C (dose: 4.0 mg/kg/injection, schedule: Q01DX005 (ip), vehicle: saline): 175 % of control
T/C (dose: 4.0 mg/kg/injection, schedule: Q01DX009 (ip), vehicle: saline): 220 % of control
T/C (dose: 4.0 mg/kg/injection, schedule: Q04DX003 (ip), vehicle: saline): 103 % of control
T/C (dose: 4.0 mg/kg/injection, schedule: Q## X003 (ip), vehicle: saline): 115 % of control
T/C (dose: 6.0 mg/kg/injection, schedule: Q01DX009 (oral), vehicle: saline): 86 % of control
T/C (dose: 7.0 mg/kg/injection, schedule: Q01DX010 (ip), vehicle: saline): 222 % of control
T/C (dose: 7.78 mg/kg/injection, schedule: Q04DX003 (ip), vehicle: saline): 160 % of control
T/C (dose: 8.0 mg/kg/injection, schedule: Q01DX005 (ip), vehicle: saline): 90 % of control
T/C (dose: 8.0 mg/kg/injection, schedule: Q04DX003 (ip), vehicle: saline): 163 % of control
T/C (dose: 8.0 mg/kg/injection, schedule: Q## X002 (ip), vehicle: saline): 115 % of control
T/C (dose: 8.0 mg/kg/injection, schedule: Q## X003 (ip), vehicle: saline): 150 % of control
T/C (dose: 13.0 mg/kg/injection, schedule: Q04DX003 (ip), vehicle: saline): 151 % of control and 158 % of control and 192 % of control
T/C (dose: 16.0 mg/kg/injection, schedule: Q04DX003 (ip), vehicle: saline): 232 % of control
T/C (dose: 16.0 mg/kg/injection, schedule: Q## X002 (ip), vehicle: saline): 165 % of control
T/C (dose: 16.0 mg/kg/injection, schedule: Q## X003 (ip), vehicle: saline): 185 % of control
T/C (dose: 16.0 mg/kg/injection, schedule: Q## X008 (ip), vehicle: saline): 160 % of control
T/C (dose: 16.0 mg/kg/injection, schedule: Q## X016 (ip), vehicle: saline): 165 % of control
T/C (dose: 16.0 mg/kg/injection, schedule: Q## X024 (ip), vehicle: saline): 215 % of control
T/C (dose: 18.0 mg/kg/injection, schedule: Q04DX003 (ip), vehicle: saline): 185 % of control
T/C (dose: 21.6 mg/kg/injection, schedule: Q04DX003 (ip), vehicle: saline): 225 % of control and 235 % of control and 239 % of control
T/C (dose: 32.0 mg/kg/injection, schedule: Q01DX001 (ip), vehicle: saline): 150 % of control
T/C (dose: 32.0 mg/kg/injection, schedule: Q## X002 (ip), vehicle: saline): 210 % of control
T/C (dose: 32.0 mg/kg/injection, schedule: Q## X003 (ip), vehicle: saline): 90 % of control
T/C (dose: 32.0 mg/kg/injection, schedule: Q## X016 (ip), vehicle: saline): 150 % of control

Cc1ccnc(NC(=O)Nc2ccccc2F)c1
T/C (dose: 100.0 mg/kg/injection, schedule: Q01DX001 (ip), vehicle: Klucel (hydroxypropylcellulose) (HPC)): 90 % of control
T/C (dose: 200.0 mg/kg/injection, schedule: Q01DX001 (ip), vehicle: Klucel (hydroxypropylcellulose) (HPC)): 95 % of control
T/C (dose: 400.0 mg/kg/injection, schedule: Q01DX001 (ip), vehicle: Klucel (hydroxypropylcellulose) (HPC)): 105 % of control

Cc1cc(N(CCCl)CCCl)ccc1N=Nc1ccccc1C(=O)[O-].Cc1cc(N(CCCl)CCCl)ccc1N=Nc1ccccc1C(=O)[O-].[Cu+2]
T/C (dose: 16.5 mg/kg/injection, schedule: Q04DX003 (ip), vehicle: saline with Tween-80): 240 % of control and 105 % of control
T/C (dose: 25.0 mg/kg/injection, schedule: Q04DX003 (ip), vehicle: saline with Tween-80): 263 % of control and 165 % of control
T/C (dose: 37.5 mg/kg/injection, schedule: Q04DX003 (ip), vehicle: saline with Tween-80): 227 % of control

O=C(CC(O)(C(F)(F)F)C(F)(F)F)c1cccs1
T/C (dose: 132.0 mg/kg/injection, schedule: Q04DX003 (ip), vehicle: saline with Tween-80): 105 % of control

[Cl][Pb]([Cl])([c]1ccccc1)[c]1ccccc1
T/C [2]: 91 % of control
T/C [3]: 87 % of control
T/C [4]: 97 % of control

O=C(O)CCc1nc(-c2ccccc2)c(-c2ccccc2)o1
T/C [3]: 100 % of control
T/C [4]: 104 % of control
T/C [5]: 119 % of control

Cc1cc2[nH]c(=O)c(=O)[nH]c2cc1C
T/C (dose: 10.0 mg/kg/injection, schedule: Q01DX009 (ip), vehicle: Klucel (hydroxypropylcellulose) (HPC)): 109 % of control
T/C (dose: 20.0 mg/kg/injection, schedule: Q01DX009 (ip), vehicle: Klucel (hydroxypropylcellulose) (HPC)): 109 % of control
T/C (dose: 40.0 mg/kg/injection, schedule: Q01DX009 (ip), vehicle: Klucel (hydroxypropylcellulose) (HPC)): 100 % of control
T/C (dose: 75.0 mg/kg/injection, schedule: Q01DX009 (ip), vehicle: Klucel (hydroxypropylcellulose) (HPC)): 86 % of control

CC1=C(Cc2ccccc2)C(C)(C)CCC1
T/C [3]: 103 % of control
T/C [4]: 112 % of control
T/C [5]: 121 % of control

COC(=O)C1C(c2ccccc2)=NC(c2ccccc2)C1C(=O)OC (stereo not drawn)
T/C (dose: 100.0 mg/kg/injection, schedule: Q01DX001 (ip), vehicle: saline with Tween-80): 101 % of control
T/C (dose: 200.0 mg/kg/injection, schedule: Q01DX001 (ip), vehicle: saline with Tween-80): 96 % of control
T/C (dose: 400.0 mg/kg/injection, schedule: Q01DX001 (ip), vehicle: saline with Tween-80): 109 % of control

CC(=O)OC1CCC2C3CCC4=C(Cl)C(=O)CCC4C3CCC12C (stereo not drawn)
T/C (dose: 100.0 mg/kg/injection, schedule: Q04DX003 (sc), vehicle: steriod suspending solution): 90 % of control
T/C (dose: 200.0 mg/kg/injection, schedule: Q04DX003 (sc), vehicle: steriod suspending solution): 100 % of control
T/C (dose: 400.0 mg/kg/injection, schedule: Q04DX003 (sc), vehicle: steriod suspending solution): 100 % of control

c1ccc2c(c1)ccc1c[n+]3ccccc3cc12
T/C (dose: 0.25 mg/kg/injection, schedule: Q01DX009 (ip), vehicle: saline): 90 % of control
T/C (dose: 0.5 mg/kg/injection, schedule: Q01DX009 (ip), vehicle: saline): 90 % of control
T/C (dose: 1.0 mg/kg/injection, schedule: Q01DX009 (ip), vehicle: saline): 90 % of control
T/C [1]: 90 % of control

Cc1cccn2c(CCc3nnc4c(C)cccn34)nnc12
T/C [3]: 97 % of control
T/C [4]: 93 % of control
T/C [5]: 89 % of control

O=S(=O)(O)CCO
T/C (dose: 200.0 mg/kg/injection, schedule: Q01DX009 (ip), vehicle: saline): 92 % of control
T/C (dose: 400.0 mg/kg/injection, schedule: Q01DX009 (ip), vehicle: saline): 100 % of control

OC1c2ccccc2-c2ccccc2C1O (stereo not drawn)
T/C (dose: 200.0 mg/kg/injection, schedule: Q04DX002 (ip), vehicle: saline with Tween-80): 153 % of control
T/C (dose: 400.0 mg/kg/injection, schedule: Q04DX002 (ip), vehicle: saline with Tween-80): 155 % of control

COc1ccc(-c2cnc(C(N)=O)c(=O)[nH]2)cc1
T/C [4]: 104 % of control
T/C [5]: 108 % of control
T/C (dose: 400.0 mg/kg/injection, schedule: Q01DX009 (ip), vehicle: saline with Tween-80): 100 % of control

CCCCCCCCCCCCCCCCCC[n+]1cccc(C2CCCN2C)c1 (stereo not drawn) (tested in a mixture with another compound)
T/C (dose: 25.0 mg/kg/injection, schedule: Q01DX009 (ip), vehicle: Klucel (hydroxypropylcellulose) (HPC)): 119 % of control

S
T/C (dose: 100.0 mg/kg/injection, schedule: Q01DX009 (ip), vehicle: Klucel (hydroxypropylcellulose) (HPC)): 100 % of control
T/C (dose: 100.0 mg/kg/injection, schedule: Q04DX003 (ip), vehicle: Klucel (hydroxypropylcellulose) (HPC)): 86 % of control
T/C (dose: 200.0 mg/kg/injection, schedule: Q01DX009 (ip), vehicle: Klucel (hydroxypropylcellulose) (HPC)): 110 % of control
T/C (dose: 200.0 mg/kg/injection, schedule: Q04DX003 (ip), vehicle: Klucel (hydroxypropylcellulose) (HPC)): 100 % of control
T/C (dose: 400.0 mg/kg/injection, schedule: Q04DX003 (ip), vehicle: Klucel (hydroxypropylcellulose) (HPC)): 100 % of control

NOCc1cccc([N+](=O)[O-])c1
T/C (dose: 50.0 mg/kg/injection, schedule: Q04DX003 (ip), vehicle: saline): 100 % of control
T/C (dose: 100.0 mg/kg/injection, schedule: Q04DX003 (ip), vehicle: saline): 91 % of control
T/C (dose: 200.0 mg/kg/injection, schedule: Q04DX003 (ip), vehicle: saline): 91 % of control

O=C(NC(=O)c1c(F)cccc1F)Nc1nc2cc(Cl)ccc2o1
T/C [2]: 96 % of control
T/C [3]: 96 % of control
T/C [4]: 90 % of control

OC(CN1CC1)c1ccccc1 (stereo not drawn)
T/C (dose: 20.0 mg/kg/injection, schedule: Q04DX003 (ip), vehicle: saline): 90 % of control
T/C (dose: 40.0 mg/kg/injection, schedule: Q04DX003 (ip), vehicle: saline): 95 % of control
T/C (dose: 80.0 mg/kg/injection, schedule: Q04DX003 (ip), vehicle: saline): 100 % of control
